Measurements: PMC10408569, “Recruitment of hexahydroquinoline as anticancer scaffold targeting inhibition of wild and mutants EGFR (EGFR^WT, EGFR^T790M, and EGFR^L858R)” (Journal of Enzyme Inhibition and Medicinal Chemistry, 2023)

Key:
[1] = test system: COLO 205; assay: NCI-60 anticancer screening (SRB); type: cell-based; settings: Homo sapiens; COLO 205, colon cancer; one dose 10 μM; read-out: Growth Inhibition Percentage (GI %)
[2] = test system: HOP-62; assay: NCI-60 anticancer screening (SRB); type: cell-based; settings: Homo sapiens; HOP-62, NSC lung cancer; one dose 10 μM; read-out: Growth Inhibition Percentage (GI %)
[3] = test system: RXF 393; assay: NCI-60 anticancer screening (SRB); type: cell-based; settings: Homo sapiens; RXF 393, renal cancer; one dose 10 μM; read-out: Growth Inhibition Percentage (GI %)
[4] = test system: SK-MEL-5; assay: NCI-60 anticancer screening (SRB); type: cell-based; settings: Homo sapiens; SK-MEL-5, melanoma; one dose 10 μM; read-out: Growth Inhibition Percentage (GI %)
[5] = test system: A498; assay: NCI-60 anticancer screening (SRB); type: cell-based; settings: Homo sapiens; A498, renal cancer; one dose 10 μM; read-out: Growth Inhibition Percentage (GI %)
[6] = test system: SN 12C; assay: NCI-60 anticancer screening (SRB); type: cell-based; settings: Homo sapiens, SN12C; SN 12C, renal cancer; one dose 10 μM; read-out: Growth Inhibition Percentage (GI %)
[7] = test system: HT29; assay: NCI-60 anticancer screening (SRB); type: cell-based; settings: Homo sapiens, HT-29; HT29, colon cancer; one dose 10 μM; read-out: Growth Inhibition Percentage (GI %)
[8] = test system: UO-31; assay: NCI-60 anticancer screening (SRB); type: cell-based; settings: Homo sapiens; UO-31, renal cancer; one dose 10 μM; read-out: Growth Inhibition Percentage (GI %)
[9] = test system: NCI-H322M; assay: NCI-60 anticancer screening (SRB); type: cell-based; settings: Homo sapiens, NSC lung cancer, one dose 10 μM, read-out: Growth Inhibition Percentage (GI %)
[10] = test system: M14; assay: NCI-60 anticancer screening (SRB); type: cell-based; settings: Homo sapiens; M14, melanoma; one dose 10 μM; read-out: Growth Inhibition Percentage (GI %)
[11] = test system: HL-60(TB); assay: NCI-60 anticancer screening (SRB); type: cell-based; settings: Homo sapiens, leukemia, one dose 10 μM, read-out: Growth Inhibition Percentage (GI %)
[12] = test system: SK-MEL-2; assay: NCI-60 anticancer screening (SRB); type: cell-based; settings: Homo sapiens; SK-MEL-2, melanoma; one dose 10 μM; read-out: Growth Inhibition Percentage (GI %)
[13] = test system: MCF7; assay: NCI-60 anticancer screening (SRB); type: cell-based; settings: Homo sapiens; MCF7, breast cancer; one dose 10 μM; read-out: Growth Inhibition Percentage (GI %)
[14] = test system: SW-620; assay: NCI-60 anticancer screening (SRB); type: cell-based; settings: Homo sapiens; SW-620, colon cancer; one dose 10 μM; read-out: Growth Inhibition Percentage (GI %)
[15] = test system: MDA-MB-231; assay: NCI-60 anticancer screening (SRB); type: cell-based; settings: Homo sapiens; MDA-MB-231, breast cancer; one dose 10 μM; read-out: Growth Inhibition Percentage (GI %)
[16] = test system: NCI-H460; assay: NCI-60 anticancer screening (SRB); type: cell-based; settings: Homo sapiens; NCI-H460, NSC lung cancer; one dose 10 μM; read-out: Growth Inhibition Percentage (GI %)
[17] = test system: LOX IMVI; assay: NCI-60 anticancer screening (SRB); type: cell-based; settings: Homo sapiens, melanoma, one dose 10 μM, read-out: Growth Inhibition Percentage (GI %)
[18] = test system: UACC-62; assay: NCI-60 anticancer screening (SRB); type: cell-based; settings: Homo sapiens; UACC-62, melanoma; one dose 10 μM; read-out: Growth Inhibition Percentage (GI %)
[19] = test system: HS 578T; assay: NCI-60 anticancer screening (SRB); type: cell-based; settings: Homo sapiens; HS 578T, breast cancer; one dose 10 μM; read-out: Growth Inhibition Percentage (GI %)
[20] = test system: TK-10; assay: NCI-60 anticancer screening (SRB); type: cell-based; settings: Homo sapiens; TK-10, renal cancer; one dose 10 μM; read-out: Growth Inhibition Percentage (GI %)
[21] = test system: 786-0; assay: NCI-60 anticancer screening (SRB); type: cell-based; settings: Homo sapiens; 786-0, renal cancer; one dose 10 μM; read-out: Growth Inhibition Percentage (GI %)
[22] = test system: BT-549; assay: NCI-60 anticancer screening (SRB); type: cell-based; settings: Homo sapiens; BT-549, breast cancer; one dose 10 μM; read-out: Growth Inhibition Percentage (GI %)
[23] = test system: KM 12; assay: NCI-60 anticancer screening (SRB); type: cell-based; settings: Homo sapiens, KM12; KM 12, colon cancer; one dose 10 μM; read-out: Growth Inhibition Percentage (GI %)
[24] = test system: OVCAR-4; assay: NCI-60 anticancer screening (SRB); type: cell-based; settings: Homo sapiens; OVCAR-4, ovarian cancer; one dose 10 μM; read-out: Growth Inhibition Percentage (GI %)
[25] = test system: NCI 60 cancer cell lines; assay: NCI-60 anticancer screening (SRB), whole panel; type: cell-based, human; settings: mean across the NCI-60 panel; one dose 10 μM
[26] = test system: HCC-2998; assay: NCI-60 anticancer screening (SRB); type: cell-based; settings: Homo sapiens; HCC-2998, colon cancer; one dose 10 μM; read-out: Growth Inhibition Percentage (GI %)
[27] = test system: MOLT-4; assay: NCI-60 anticancer screening (SRB); type: cell-based; settings: Homo sapiens; MOLT-4, leukemia; one dose 10 μM; read-out: Growth Inhibition Percentage (GI %)
[28] = test system: NCI-H522; assay: NCI-60 anticancer screening (SRB); type: cell-based; settings: Homo sapiens; NCI-H522, NSC lung cancer; one dose 10 μM; read-out: Growth Inhibition Percentage (GI %)
[29] = test system: OVCAR-3; assay: NCI-60 anticancer screening (SRB); type: cell-based; settings: Homo sapiens; OVCAR-3, ovarian cancer; one dose 10 μM; read-out: Growth Inhibition Percentage (GI %)
[30] = test system: CAKI-1; assay: NCI-60 anticancer screening (SRB); type: cell-based; settings: Homo sapiens; CAKI-1, renal cancer; one dose 10 μM; read-out: Growth Inhibition Percentage (GI %)
[31] = test system: T-47D; assay: NCI-60 anticancer screening (SRB); type: cell-based; settings: Homo sapiens, T47D, breast cancer, one dose 10 μM, read-out: Growth Inhibition Percentage (GI %)
[32] = test system: NCI/ADR-RES; assay: NCI-60 anticancer screening (SRB); type: cell-based; settings: Homo sapiens, ovarian cancer, one dose 10 μM, read-out: Growth Inhibition Percentage (GI %)

Structure (SMILES) | inhibition at 10 µM [1] [%] | inhibition at 10 µM [2] [%] | inhibition at 10 µM [3] [%] | inhibition at 10 µM [4] [%] | inhibition at 10 µM [5] [%] | inhibition at 10 µM [6] [%] | inhibition at 10 µM [7] [%] | inhibition at 10 µM [8] [%] | inhibition at 10 µM [9] [%] | inhibition at 10 µM [10] [%] | inhibition at 10 µM [11] [%] | inhibition at 10 µM [12] [%] | inhibition at 10 µM [13] [%] | melting point [°C] | inhibition at 10 µM [14] [%] | inhibition at 10 µM [15] [%] | inhibition at 10 µM [16] [%] | inhibition at 10 µM [17] [%] | inhibition at 10 µM [18] [%] | inhibition at 10 µM [19] [%] | also measured
CCOC(=O)C1=C(N)N(c2ccccc2)C2=C(C(=O)CC(C)(C)C2)C1c1ccccc1Cl (racemic) [6a, (±)-Ethyl 2-amino-4–(2-chlorophenyl)-7,7-dimethyl-5-oxo-1-phenyl-1,4,5,6,7,8-hexahydroquinoline-3-carboxylate] | 35 | < 10 | 22 | 40 | < 10 | 25 | 45 | 45 | 18 | 50 | 123 | 43 | 44 | 168 to 170 | 26 | 16 | 40 | 15 | 56 | < 10 | inhibition at 10 µM [20]: < 10%; inhibition at 10 µM [21]: 21%; inhibition at 10 µM [22]: 22%; inhibition at 10 µM [23]: 42%; inhibition at 10 µM [24]: 26%; GI % mean [25]: 33%; inhibition at 10 µM [26]: 15%; inhibition at 10 µM [27]: 75%; inhibition at 10 µM [28]: 43%; inhibition at 10 µM [29]: 38%; inhibition at 10 µM [30]: 54%; inhibition at 10 µM [31]: 48%; inhibition at 10 µM [32]: 27%
CCOC(=O)C1=C(N)N(c2ccccc2)C2=C(C(=O)CC(C)(C)C2)C1c1cccnc1 (racemic) [12d] | < 10 | < 10 | < 10 | < 10 | < 10 | < 10 | < 10 | 77 | < 10 | < 10 | < 10 | < 10 | < 10 | 215 to 217 | < 10 | < 10 | < 10 | < 10 | 12 | < 10 | inhibition at 10 µM [20]: < 10%; inhibition at 10 µM [21]: < 10%; inhibition at 10 µM [22]: < 10%; inhibition at 10 µM [23]: < 10%; inhibition at 10 µM [24]: < 10%; GI % mean [25]: - ((-) = GI % mean less than 10); inhibition at 10 µM [26]: < 10%; inhibition at 10 µM [27]: < 10%; inhibition at 10 µM [28]: 15%; inhibition at 10 µM [29]: < 10%; inhibition at 10 µM [30]: < 10%; inhibition at 10 µM [31]: < 10%; inhibition at 10 µM [32]: 13%
CCOC(=O)C1=C(N)N(c2ccc(Cl)cc2)C2=C(C(=O)CC(C)(C)C2)C1c1cccc(Cl)c1Cl (racemic) [10b, (±)-Ethyl 2-amino-1–(4-chorophenyl)-4–(2,3-dichlorophenyl)-7,7-dimethyl-5-oxo-1-phenyl-1,4,5,6,7,8-hexahydroquinoline-3-carboxylate] | 41 | 16 | 27 | 40 | < 10 | 35 | 32 | 49 | < 10 | 16 | 77 | 20 | 52 | 250 to 252 | < 10 | 33 | 53 | < 10 | 34 | < 10 | inhibition at 10 µM [20]: < 10%; inhibition at 10 µM [21]: 22%; inhibition at 10 µM [22]: 31%; inhibition at 10 µM [23]: 49%; inhibition at 10 µM [24]: 28%; GI % mean [25]: 36%; inhibition at 10 µM [26]: 18%; inhibition at 10 µM [27]: 70%; inhibition at 10 µM [28]: 30%; inhibition at 10 µM [29]: 44%; inhibition at 10 µM [30]: 53%; inhibition at 10 µM [31]: 41%; inhibition at 10 µM [32]: 32%
CCOC(=O)C1=C(N)N(c2ccccc2)C2=C(C(=O)CC(C)(C)C2)C1c1ccccn1 (racemic) [12a, (±)-Ethyl 2-amino-7,7-dimethyl-5-oxo-1-phenyl-4-(pyridin-2-yl)-1,4,5,6,7,8-hexahydroquinoline-3-carboxylate] | < 10 | < 10 | < 10 | < 10 | < 10 | < 10 | < 10 | < 10 | < 10 | < 10 | < 10 | < 10 | < 10 | 158 to 160 | < 10 | < 10 | < 10 | < 10 | < 10 | < 10 | inhibition at 10 µM [20]: < 10%; inhibition at 10 µM [21]: < 10%; inhibition at 10 µM [22]: < 10%; inhibition at 10 µM [23]: < 10%; inhibition at 10 µM [24]: < 10%; GI % mean [25]: - ((-) = GI % mean less than 10); inhibition at 10 µM [26]: < 10%; inhibition at 10 µM [27]: < 10%; inhibition at 10 µM [28]: 11%; inhibition at 10 µM [29]: < 10%; inhibition at 10 µM [30]: < 10%; inhibition at 10 µM [31]: < 10%; inhibition at 10 µM [32]: < 10%
